Test results: BindingDB's records for doi:10.1124/jpet.103.049619 (University of Kansas, 2003)

What was measured:
[1] = target: Histamine H1 receptor (Cavia porcellus, UniProt P31389)
[2] = target: Histamine H1 receptor (Homo sapiens, UniProt P35367)
Chain of Histamine H1 receptor (Homo sapiens, UniProt P35367) (P35367 whole entry): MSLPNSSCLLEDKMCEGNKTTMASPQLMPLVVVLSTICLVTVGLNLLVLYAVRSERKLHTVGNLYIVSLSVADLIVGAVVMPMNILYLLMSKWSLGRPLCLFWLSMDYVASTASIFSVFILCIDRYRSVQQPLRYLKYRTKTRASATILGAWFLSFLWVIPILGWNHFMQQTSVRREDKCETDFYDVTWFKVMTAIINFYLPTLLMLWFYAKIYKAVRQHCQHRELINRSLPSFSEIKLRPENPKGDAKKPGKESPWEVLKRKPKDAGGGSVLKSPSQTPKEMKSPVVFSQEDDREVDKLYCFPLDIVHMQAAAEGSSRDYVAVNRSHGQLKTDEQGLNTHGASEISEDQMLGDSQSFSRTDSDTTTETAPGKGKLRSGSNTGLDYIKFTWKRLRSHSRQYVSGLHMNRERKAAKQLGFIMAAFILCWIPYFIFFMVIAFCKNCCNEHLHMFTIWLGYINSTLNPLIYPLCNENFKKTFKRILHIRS

Chain of Histamine H1 receptor (Cavia porcellus, UniProt P31389) (P31389 whole entry): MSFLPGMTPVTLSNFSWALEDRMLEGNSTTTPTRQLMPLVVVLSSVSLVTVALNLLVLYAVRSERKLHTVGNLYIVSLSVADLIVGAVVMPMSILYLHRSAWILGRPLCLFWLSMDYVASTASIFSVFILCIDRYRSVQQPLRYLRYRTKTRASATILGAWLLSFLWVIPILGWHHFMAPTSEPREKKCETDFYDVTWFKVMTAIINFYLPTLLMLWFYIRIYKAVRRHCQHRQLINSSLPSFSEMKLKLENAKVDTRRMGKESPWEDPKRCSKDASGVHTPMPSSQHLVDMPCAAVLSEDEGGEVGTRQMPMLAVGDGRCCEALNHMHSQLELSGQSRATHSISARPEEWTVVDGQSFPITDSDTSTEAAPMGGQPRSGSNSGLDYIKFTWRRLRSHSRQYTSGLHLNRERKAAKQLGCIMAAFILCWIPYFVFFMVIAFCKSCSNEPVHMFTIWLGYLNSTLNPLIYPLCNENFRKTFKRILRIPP

SMILES | Ki [1] [nM] | Ki [2] [nM]
NCCc1nccs1 [2-(2-aminoethyl)thiazole] | 8490 | 
Cc1ccc(C(=CCN2CCCC2)c2ccccn2)cc1 [CAS_486-12-4] | 1.15 | 
NC(=NCCC(c1ccc(F)cc1)c1ccccn1)NCCCc1cnc[nH]1 (stereo unspecified) [CAS_65895] | 33.3 | 353
CNCCc1cnc(CCC(c2ccccc2)c2ccccc2)[nH]1 [N-Methyl-2-(3,3-diphenylpropyl)-1H-imidazole-4-(ethanamine)] | 290 | 370

Now from value to molecule:

Ki [1] [nM] | Ki [2] [nM] | SMILES
600 | 1780 | NCCc1c[nH]c(-c2cccc(Cl)c2)n1 [2-(3-Chlorophenyl)histamine]
610 | 1760 | NCCc1c[nH]c(-c2cccc(I)c2)n1 [2-(3-Iodophenyl)histamine]
700 | 2220 | NCCc1c[nH]c(-c2cccc(Br)c2)n1 [2-[2-(3-bromophenyl)-1H-imidazol-4-yl]ethan-1-amine]
53.9 | 255 | N=C(NCCCc1c[nH]cn1)NCCC(c1cccc(Cl)c1)c1ccccn1 (stereo unspecified) [BU-E 47]
310 | 400 | CN(C)CCc1c[nH]c(CCC(c2ccccc2)c2ccccc2)n1 [N,N-Dimethyl-2-(3,3-diphenylpropyl)-1H-imidazole-4-(ethanamine)]
